Results published in US20240300932A1, “N-PHENYLIMINE DERIVATIVE AND PREPARATION METHOD AND USE THEREOF” (Guizhou University, priority 2023, published 2024).
Each block holds one compound with its values, some of them ahead of it.

Key:
[1] = tested on: Trifoliumre pensL.; assay: Post-emergence herbicidal activity test (stem and leaf spray, pot culture); type: in vivo; details: 3 weeks after spraying
Summary of the method: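 Pot-grown weeds in loam (pH 7), greenhouse at 20–30 °C, sprayed once post-emergence at the 2–3-leaf stage. Compound in acetone with Tween 80 plus methyl oleate oil (1.5 L/ha), applied at 10, 5 and 2.5 g/mu by spray tower. Effect scored 3 weeks after spraying, averaged over three repeats.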

[2] = tested on: Setaria viridis; assay: as above; type: in vivo; details: 3 weeks after spraying
Summary of the method: (§1)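 Seeds soaked 6 h at 25 °C, germinated at 28 °C, sown in loam pots and thinned to 10 plants/pot. At 2–3 leaves, plants received a single spray-tower application of 10, 5 or 2.5 g/mu. Fresh-weight control was graded 0–5 after 3 weeks.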

[3] = tested on: Abutilon theophrasti; assay: as above; type: in vivo; details: 3 weeks after spraying
Summary of the method: as §1

[4] = tested on: Echinochloa crusgalli; assay: as above; type: in vivo; details: 3 weeks after spraying
Summary of the method: as §1

[5] = tested on: Amaranthus retroflexus; assay: as above; type: in vivo; details: 3 weeks after spraying
Summary of the method: as §1

[6] = tested on: Portulaca oleracea; assay: as above; type: in vivo; details: 3 weeks after spraying
Summary of the method: as §1

melting point: 124 to 131 °C
SMILES: O=C(COc1cc(N2C(=O)C3=C(CCCC3)C2=O)c(F)cc1Cl)c1ccccc1 [Compound C1, 2-(4-chloro-2-fluoro-5-(2-oxo-2-phenylethoxy)phenyl)-4,5,6,7-tetrahydro-1H-isoindole-1,3(2H)-dione]
Post-emergence herbicidal activity, Trifoliumre pensL. (grade) ([1]; dosage 2.5 g/mu): 5 (Grade 5: the growth control rate is greater than or equal to 85%)
Post-emergence herbicidal activity, Trifoliumre pensL. (grade) ([1]; dosage 5 g/mu): 5 (Grade 5: the growth control rate is greater than or equal to 85%)
Post-emergence herbicidal activity, Trifoliumre pensL. (grade) ([1]; dosage 10 g/mu): 5 (Grade 5: the growth control rate is greater than or equal to 85%)
Post-emergence herbicidal activity, S. viridis (grade) ([2]; dosage 2.5 g/mu): 2 (Grade 2: the growth control rate is greater than or equal to 20% and less than 40%)
Post-emergence herbicidal activity, S. viridis (grade) ([2]; dosage 5 g/mu): 3 (Grade 3: the growth control rate is greater than or equal to 40% and less than 60%)
Post-emergence herbicidal activity, S. viridis (grade) ([2]; dosage 10 g/mu): 4 (Grade 4: the growth control rate is greater than or equal to 60% and less than 85%)
Post-emergence herbicidal activity, A. theophrasti (grade) ([3]; dosage 2.5 g/mu): 5 (Grade 5: the growth control rate is greater than or equal to 85%)
Post-emergence herbicidal activity, A. theophrasti (grade) ([3]; dosage 5 g/mu): 5 (Grade 5: the growth control rate is greater than or equal to 85%)
Post-emergence herbicidal activity, A. theophrasti (grade) ([3]; dosage 10 g/mu): 5 (Grade 5: the growth control rate is greater than or equal to 85%)
Post-emergence herbicidal activity, E. crusgalli (grade) ([4]; dosage 2.5 g/mu): 1 (Grade 1: the growth control rate is greater than or equal to 5% and less than 20%)
Post-emergence herbicidal activity, E. crusgalli (grade) ([4]; dosage 5 g/mu): 2 (Grade 2: the growth control rate is greater than or equal to 20% and less than 40%)
Post-emergence herbicidal activity, E. crusgalli (grade) ([4]; dosage 10 g/mu): 3 (Grade 3: the growth control rate is greater than or equal to 40% and less than 60%)
Post-emergence herbicidal activity, A. retroflexus (grade) ([5]; dosage 2.5 g/mu): 5 (Grade 5: the growth control rate is greater than or equal to 85%)
Post-emergence herbicidal activity, A. retroflexus (grade) ([5]; dosage 5 g/mu): 5 (Grade 5: the growth control rate is greater than or equal to 85%)
Post-emergence herbicidal activity, A. retroflexus (grade) ([5]; dosage 10 g/mu): 5 (Grade 5: the growth control rate is greater than or equal to 85%)
Post-emergence herbicidal activity, P. oleracea (grade) ([6]; dosage 2.5 g/mu): 5 (Grade 5: the growth control rate is greater than or equal to 85%)
Post-emergence herbicidal activity, P. oleracea (grade) ([6]; dosage 5 g/mu): 5 (Grade 5: the growth control rate is greater than or equal to 85%)
Post-emergence herbicidal activity, P. oleracea (grade) ([6]; dosage 10 g/mu): 5 (Grade 5: the growth control rate is greater than or equal to 85%)

melting point: 171 to 178 °C
SMILES: N#Cc1ccc(C(=O)COc2cc(N3C(=O)C4=C(CCCC4)C3=O)c(F)cc2Cl)cc1 [Compound C3, 2-(4-chloro-2-fluoro-5-(2-oxo-2-(4-cyanophenyl)ethoxy)phenyl)-4,5,6,7-tetrahydro-1H-isoindole-1,3(2H)-dione]
Post-emergence herbicidal activity, Trifoliumre pensL. (grade) ([1]; dosage 2.5 g/mu): 5 (Grade 5: the growth control rate is greater than or equal to 85%)
Post-emergence herbicidal activity, Trifoliumre pensL. (grade) ([1]; dosage 5 g/mu): 5 (Grade 5: the growth control rate is greater than or equal to 85%)
Post-emergence herbicidal activity, Trifoliumre pensL. (grade) ([1]; dosage 10 g/mu): 5 (Grade 5: the growth control rate is greater than or equal to 85%)
Post-emergence herbicidal activity, S. viridis (grade) ([2]; dosage 2.5 g/mu): 2 (Grade 2: the growth control rate is greater than or equal to 20% and less than 40%)
Post-emergence herbicidal activity, S. viridis (grade) ([2]; dosage 5 g/mu): 3 (Grade 3: the growth control rate is greater than or equal to 40% and less than 60%)
Post-emergence herbicidal activity, S. viridis (grade) ([2]; dosage 10 g/mu): 4 (Grade 4: the growth control rate is greater than or equal to 60% and less than 85%)
Post-emergence herbicidal activity, A. theophrasti (grade) ([3]; dosage 2.5 g/mu): 5 (Grade 5: the growth control rate is greater than or equal to 85%)
Post-emergence herbicidal activity, A. theophrasti (grade) ([3]; dosage 5 g/mu): 5 (Grade 5: the growth control rate is greater than or equal to 85%)
Post-emergence herbicidal activity, A. theophrasti (grade) ([3]; dosage 10 g/mu): 5 (Grade 5: the growth control rate is greater than or equal to 85%)
Post-emergence herbicidal activity, E. crusgalli (grade) ([4]; dosage 2.5 g/mu): 1 (Grade 1: the growth control rate is greater than or equal to 5% and less than 20%)
Post-emergence herbicidal activity, E. crusgalli (grade) ([4]; dosage 5 g/mu): 2 (Grade 2: the growth control rate is greater than or equal to 20% and less than 40%)
Post-emergence herbicidal activity, E. crusgalli (grade) ([4]; dosage 10 g/mu): 3 (Grade 3: the growth control rate is greater than or equal to 40% and less than 60%)
Post-emergence herbicidal activity, A. retroflexus (grade) ([5]; dosage 2.5 g/mu): 5 (Grade 5: the growth control rate is greater than or equal to 85%)
Post-emergence herbicidal activity, A. retroflexus (grade) ([5]; dosage 5 g/mu): 5 (Grade 5: the growth control rate is greater than or equal to 85%)
Post-emergence herbicidal activity, A. retroflexus (grade) ([5]; dosage 10 g/mu): 5 (Grade 5: the growth control rate is greater than or equal to 85%)
Post-emergence herbicidal activity, P. oleracea (grade) ([6]; dosage 2.5 g/mu): 5 (Grade 5: the growth control rate is greater than or equal to 85%)
Post-emergence herbicidal activity, P. oleracea (grade) ([6]; dosage 5 g/mu): 5 (Grade 5: the growth control rate is greater than or equal to 85%)
Post-emergence herbicidal activity, P. oleracea (grade) ([6]; dosage 10 g/mu): 5 (Grade 5: the growth control rate is greater than or equal to 85%)

melting point: 141 to 143 °C
SMILES: O=C(COc1cc(N2C(=O)C3=C(CCCC3)C2=O)c(F)cc1Cl)c1ccccc1F [Compound C4, 2-(4-chloro-2-fluoro-5-(2-oxo-2-(2-fluorophenyl)ethoxy)phenyl)-4,5,6,7-tetrahydro-1H-isoindole-1,3(2H)-dione]
Post-emergence herbicidal activity, Trifoliumre pensL. (grade) ([1]; dosage 2.5 g/mu): 5 (Grade 5: the growth control rate is greater than or equal to 85%)
Post-emergence herbicidal activity, Trifoliumre pensL. (grade) ([1]; dosage 5 g/mu): 5 (Grade 5: the growth control rate is greater than or equal to 85%)
Post-emergence herbicidal activity, Trifoliumre pensL. (grade) ([1]; dosage 10 g/mu): 5 (Grade 5: the growth control rate is greater than or equal to 85%)
Post-emergence herbicidal activity, S. viridis (grade) ([2]; dosage 2.5 g/mu): 2 (Grade 2: the growth control rate is greater than or equal to 20% and less than 40%)
Post-emergence herbicidal activity, S. viridis (grade) ([2]; dosage 5 g/mu): 3 (Grade 3: the growth control rate is greater than or equal to 40% and less than 60%)
Post-emergence herbicidal activity, S. viridis (grade) ([2]; dosage 10 g/mu): 4 (Grade 4: the growth control rate is greater than or equal to 60% and less than 85%)
Post-emergence herbicidal activity, A. theophrasti (grade) ([3]; dosage 2.5 g/mu): 5 (Grade 5: the growth control rate is greater than or equal to 85%)
Post-emergence herbicidal activity, A. theophrasti (grade) ([3]; dosage 5 g/mu): 5 (Grade 5: the growth control rate is greater than or equal to 85%)
Post-emergence herbicidal activity, A. theophrasti (grade) ([3]; dosage 10 g/mu): 5 (Grade 5: the growth control rate is greater than or equal to 85%)
Post-emergence herbicidal activity, E. crusgalli (grade) ([4]; dosage 2.5 g/mu): 1 (Grade 1: the growth control rate is greater than or equal to 5% and less than 20%)
Post-emergence herbicidal activity, E. crusgalli (grade) ([4]; dosage 5 g/mu): 2 (Grade 2: the growth control rate is greater than or equal to 20% and less than 40%)
Post-emergence herbicidal activity, E. crusgalli (grade) ([4]; dosage 10 g/mu): 3 (Grade 3: the growth control rate is greater than or equal to 40% and less than 60%)
Post-emergence herbicidal activity, A. retroflexus (grade) ([5]; dosage 2.5 g/mu): 5 (Grade 5: the growth control rate is greater than or equal to 85%)
Post-emergence herbicidal activity, A. retroflexus (grade) ([5]; dosage 5 g/mu): 5 (Grade 5: the growth control rate is greater than or equal to 85%)
Post-emergence herbicidal activity, A. retroflexus (grade) ([5]; dosage 10 g/mu): 5 (Grade 5: the growth control rate is greater than or equal to 85%)
Post-emergence herbicidal activity, P. oleracea (grade) ([6]; dosage 2.5 g/mu): 5 (Grade 5: the growth control rate is greater than or equal to 85%)
Post-emergence herbicidal activity, P. oleracea (grade) ([6]; dosage 5 g/mu): 5 (Grade 5: the growth control rate is greater than or equal to 85%)
Post-emergence herbicidal activity, P. oleracea (grade) ([6]; dosage 10 g/mu): 5 (Grade 5: the growth control rate is greater than or equal to 85%)

melting point: 135 to 137 °C
SMILES: O=C(COc1cc(N2C(=O)C3=C(CCCC3)C2=O)c(F)cc1Cl)c1cc(F)cc(F)c1 [Compound C5, 2-(4-chloro-2-fluoro-5-(2-oxo-2-(3,5-difluorophenyl)ethoxy)phenyl)-4,5,6,7-tetrahydro-1H-isoindole-1,3(2H)-dione]
Post-emergence herbicidal activity, Trifoliumre pensL. (grade) ([1]; dosage 2.5 g/mu): 5 (Grade 5: the growth control rate is greater than or equal to 85%)
Post-emergence herbicidal activity, Trifoliumre pensL. (grade) ([1]; dosage 5 g/mu): 5 (Grade 5: the growth control rate is greater than or equal to 85%)
Post-emergence herbicidal activity, Trifoliumre pensL. (grade) ([1]; dosage 10 g/mu): 5 (Grade 5: the growth control rate is greater than or equal to 85%)
Post-emergence herbicidal activity, S. viridis (grade) ([2]; dosage 2.5 g/mu): 2 (Grade 2: the growth control rate is greater than or equal to 20% and less than 40%)
Post-emergence herbicidal activity, S. viridis (grade) ([2]; dosage 5 g/mu): 3 (Grade 3: the growth control rate is greater than or equal to 40% and less than 60%)
Post-emergence herbicidal activity, S. viridis (grade) ([2]; dosage 10 g/mu): 4 (Grade 4: the growth control rate is greater than or equal to 60% and less than 85%)
Post-emergence herbicidal activity, A. theophrasti (grade) ([3]; dosage 2.5 g/mu): 5 (Grade 5: the growth control rate is greater than or equal to 85%)
Post-emergence herbicidal activity, A. theophrasti (grade) ([3]; dosage 5 g/mu): 5 (Grade 5: the growth control rate is greater than or equal to 85%)
Post-emergence herbicidal activity, A. theophrasti (grade) ([3]; dosage 10 g/mu): 5 (Grade 5: the growth control rate is greater than or equal to 85%)
Post-emergence herbicidal activity, E. crusgalli (grade) ([4]; dosage 2.5 g/mu): 1 (Grade 1: the growth control rate is greater than or equal to 5% and less than 20%)
Post-emergence herbicidal activity, E. crusgalli (grade) ([4]; dosage 5 g/mu): 2 (Grade 2: the growth control rate is greater than or equal to 20% and less than 40%)
Post-emergence herbicidal activity, E. crusgalli (grade) ([4]; dosage 10 g/mu): 3 (Grade 3: the growth control rate is greater than or equal to 40% and less than 60%)
Post-emergence herbicidal activity, A. retroflexus (grade) ([5]; dosage 2.5 g/mu): 5 (Grade 5: the growth control rate is greater than or equal to 85%)
Post-emergence herbicidal activity, A. retroflexus (grade) ([5]; dosage 5 g/mu): 5 (Grade 5: the growth control rate is greater than or equal to 85%)
Post-emergence herbicidal activity, A. retroflexus (grade) ([5]; dosage 10 g/mu): 5 (Grade 5: the growth control rate is greater than or equal to 85%)
Post-emergence herbicidal activity, P. oleracea (grade) ([6]; dosage 2.5 g/mu): 5 (Grade 5: the growth control rate is greater than or equal to 85%)
Post-emergence herbicidal activity, P. oleracea (grade) ([6]; dosage 5 g/mu): 5 (Grade 5: the growth control rate is greater than or equal to 85%)
Post-emergence herbicidal activity, P. oleracea (grade) ([6]; dosage 10 g/mu): 5 (Grade 5: the growth control rate is greater than or equal to 85%)
